Data on four substances can be found in US20140256639A1, “PEPTOID NEUTRALIZING AGENTS” (The Regents of the University of California, priority 2013, published 2014).

One data set deals with heparin activity. As to conditions: Rabenstein and Wang 2006; cited from earlier work.
The nature of data set [1]: Heparin affinity chromatography (HAC), NaCl gradient elution. It counts as binding. As to conditions: pH 7.2, 50 mM sodium phosphate, gradient 0 to 1 M NaCl over 60 min, 0.65 mL/min. Here is the method: The relative affinities of the peptoids in Table 2 for heparin were determined by heparin affinity chromatography (“HAC”). Peptoid solutions, typically 0.2 mM, were eluted by gradient elution; mobile phase A consisted of pH 7.2, 50 mM sodium phosphate buffer and mobile phase B consisted of the same buffer but with 1 M NaCl added. The flow rate was 0.65 mL/min and the gradient began with 100% mobile phase A and 0% mobile phase B, and ended at 60 min with 0% mobile phase A and 100% B although most of the peptoid runs were complete within 30 min or less.

The next data set concerns proteases. As to conditions: physiological conditions; cited from earlier work.

Regarding “Ac-SRGKAKVKAKVKDQTK-NH2 (not fully specified; printed as Ac-SRGKAKVKAKVKDQTK-NH2) [L-HIPAP]”, the neutralizing heparin activity entry in the data set with heparin activity is listed as “equally effective”.

In data set [1], “H-[N(Orn)-N(All)-N(Spe)]3-NH2 [s9merAll]” registered an HAC r.t. of 20 ± 2.0 min.

Turning to Ac-SRGKAKVKAKVKDQTK-NH2 [D-HIPAP], in the data set with proteases, the “stability / degradation by proteases” value is listed as “more stable than L-HIPAP”.

Regarding Ac-SRGKAKVKAKVKDQTK-NH2 [L-HIPAP], the “stability / degradation by proteases” value with proteases is “more susceptible to degradation by proteases”.
